Key:
[1] = system: phosphorylated ERK1/2 (P-ERK1/2); test: Western Blotting of phosphorylated ERK1/2 in U937 cells; type: cell-based; settings: 10 μmol/L, 24 hours
Description: (§1) The inhibition of the STAT3 and ERK signal pathways achieved by Mogroside I E1, Mogroside II A2 and mogrol was detected by Western Blotting, specifically:
Group 1: histiocytic lymphoma U937 cells (1×10^6 cells/well) were inoculated into a 6-well culture plate for staying overnight, and 0 and 10 μmol/L of Mogroside I E1, Mogroside II A2 and mogrol were added respectively, and the culture was continued for 24 hours;
(§2) After the termination of the cell culture, the culture solution was removed, and the residue was washed with PBS (0.01 mol/L, pH 7.4), and then a cell lysis solution containing protease inhibitors was added at an amount of 50 μl/well, and the mixture was placed in an ice bath for lysis at 4° C. for 30 min and then centrifuged at 14000 r/min for 10 min, and then total proteins were obtained from the supernatant;
(§3) The protein concentrations were measured with bovine serum albumin (BSA) as the standard. 50 μg of the total proteins was separated by polyacrylamide gel electrophoresis with 12% […], electrophoretically transferred to a PVDF membrane (polyvinylidene fluoride membrane), and blocked for 1 h by 5% of skim milk (containing 0.1% of Tween 20), and then antibodies p-STAT3 (Tyr705) and p-Erk1/2 as well as β-actin were added, and the primary antibody was incubated at 4° C. overnight (β-actin was used as reference in loading amount); the membrane was washed for 3 times with TBS-T, 5 min each time; secondary antibody marked by horseradish peroxidase (HRP) was added for incubation at room temperature for 1 h, the membrane was washed for 3 times with a wash solution (TBS-T), 10 min each time, and then ECL was added for incubation in dark for 5 min, and subsequently, a fluorescence imaging analyzer was used for image development and scanning analysis, and the results of Western Blotting detection are shown in FIGS. 4 to 6.

[2] = system: phosphorylated STAT3 (P-STAT3, Tyr705); test: Western Blotting of phosphorylated STAT3 in A875 cells; type: cell-based, human; settings: melanoma A875 cells, 10 μmol/L, 24 hours
Description: as §1
Group 2: human melanoma A875 cells (1×10^6 cells/well) were inoculated into a 6-well culture plate for staying overnight, and 0 and 10 μmol/L of Mogroside I E1, Mogroside II A2 and mogrol were added respectively, and the culture was continued for 24 hours;
as §2, §3

[3] = system: cycle regulatory protein P21; test: Western Blotting of P21 in K562 cells; type: cell-based, human; settings: leukemia cells K562, 10 μmol/L, 24 h
Description: The STAT3 and ERK signal pathways can regulate cyclins and apoptosis genes, and in order to verify the effects of […] and mogrol, the expression status of downstream genes of STAT3 and ERK was detected, wherein the influences of the three mogrosides and analogs thereof, i.e. Mogrol I E1, Mogrol II A2 and mogrol, on Bcl-2 and P21 proteins in the histiocytic lymphoma U937 cells, human melanoma A875 cells and leukemia cells K562 were determined, respectively.
The regulation of Bcl-2 and P21 proteins by mogrosides and analog thereof to the was detected by Western Blotting, specifically: histiocytic lymphoma U937 cells, human melanoma A875 cells and leukemia cells K562 (1×10^6 cells/well) were inoculated into a 6-well culture plate overnight, and 0 and 10 μmol/L of the mogrosides and analogs thereof were added respectively, and kept cultured for 24 h. […]
The protein concentration was measured with bovine serum albumin (BSA) as the standard. 50 μg of the total proteins were separated by polyacrylamide gel electrophoresis with 12% SDS, and electrophoretically transferred to a PVDF membrane (polyvinylidene fluoride membrane), and blocked for 1 h by 5% of skim milk (containing 0.1% of Tween 20), and then antibodies P21, Bcl-2 and β-actin were added, wherein the primary antibody was incubated at 4° C. overnight (β-actin was used as reference loading amount); the membrane was washed for 3 times with TBS-T, 5 min each time; secondary antibody marked by horseradish peroxidase (HRP) was added for incubation at room temperature for 1 h, the membrane was washed with rinse solution (TBS-T) for 3 times, 10 min each time, and then ECL was added for incubation in dark for 5 min, and subsequently, a fluorescence imaging analyzer was used for image development and scanning analysis.

[4] = system: histiocytic lymphoma U937 cells; test: Cell cycle distribution, PI staining, flow cytometer; type: cell-based; settings: 24 h
Source text: (§4) The influences of Mogroside I E1, Mogroside II A2 and mogrol on the cell cycle distribution of the histiocytic lymphoma U937 cells, the human melanoma A875 cells and the leukemia cells K562.
(§5) The cell cycle arrest achieved by drugs is an important approach to the inhibition of cancer cell proliferation.

[5] = system: human melanoma A875 cells; test: as above; type: cell-based
Source text: as §4, §5

[6] = system: human melanoma A875 cells; test: Cell apoptosis, Annexin V-FITC/PI, flow cytometer; type: cell-based; settings: 10 μmol/L, 24 h
Description: Mogroside I E1, Mogroside II A2 and mogrol) for 24 h, cells were collected and washed twice with 200 μl of cold PBS, and then the cells were collected again; 100 μl of binding buffer was added for re-suspending the cells, and after the addition of 2 μl of Annexin V-FITC and well mixing, the resulting mixture was placed in dark at room temperature for 10 min, and then 5 μl of propidium iodide (PI) was added and then well mixed; the mixture was placed in dark at room temperature for 10 min, and detected by flow cytometer, and the results are shown in FIGS. 13-15.

[7] = system: human melanoma A875 cells; test: Cell morphology, Hoechst 33258 staining, fluorescence microscope; type: cell-based; settings: A875 melanoma cells, 10, 100 and 250 μmol/L, 24-hour culture
Description: (§6) Lymphoma U937 cells, human melanoma A875 cells and leukemia cells K562 in logarithmic growth phase were selected, and the concentrations of the cells were adjusted to 1×10^4 cells/mL, and the cells were transferred to a 6-well plate for culture, and after the 24-hour culture, drugs were added to achieve final concentrations of 0, 10, 100 and 250 μmol/L, wherein only whole medium was added to the negative control groups, while Mogroside II A2 was added to the positive control groups, after 24-hour culture, waste solution was removed, and fixing solution was added to each well for fixing for 25 min, and then the resulting mixture was washed twice, 3 min each time, and then Hoechst 33258 staining solution was added for staining in dark at room temperature for 30 min, and the cell morphology variation was observed using a fluorescence microscope.

[8] = system: lymphoma U937 cells; test: as above; type: cell-based; settings: lymphoma U937 cells, 10, 100 and 250 μmol/L, 24-hour culture
Description: as §6

[9] = system: leukemia cells K562; test: as above; type: cell-based, human; settings: leukemia cells K562, 10, 100 and 250 μmol/L, 24-hour culture
Description: as §6

C[C@H](CC[C@@H](O)C(C)(C)O)[C@H]1CC[C@@]2(C)[C@@H]3CC=C4[C@@H](CC[C@H](O)C4(C)C)[C@]3(C)[C@H](O)C[C@]12C [mogrol]
expression level of phosphorylated ERK1/2 (P-ERK1/2) [1]: significantly decreased | expression level of phosphorylated STAT3 (P-STAT3) [2]: significantly decreased | expression of cycle regulatory protein P21 [3]: significantly up-regulated | proportion of cells in G0/G1 phase with the rise of the concentration ([4]; U937 cells, 0, 1, 10, 150 and 250 μmol/L): gradually increased | cell cycle distribution (proportion of cells of G0/G1 phase) ([4]; U937 cells, 10 μmol/L): G0/G1 arrest | cell cycle distribution (proportion of cells in the G0/G1 phase) ([5]; human melanoma A875 cells, 10 μmol/L, 24 h): G0/G1 arrest | proportion of cells in the G0/G1 phase with the rise of the concentration ([5]; melanoma A875 cells, different concentrations (FIG. 12)): gradually increased | cell apoptosis [6]: induce the apoptosis | cell morphology variation (Hoechst 33258) [7]: identical to the results of Mogroside II A2 | cell morphology variation (Hoechst 33258) [8]: identical to the results of Mogroside II A2 | cell morphology variation (Hoechst 33258) [9]: identical to the results of Mogroside II A2
